Results published in patent publication US7141553B2, “A3AR agonists for the treatment of inflammatory arthritis” (Can-Fite Biopharma Ltd. Israel, priority 2002, dated 2006).

System: adjuvant induced arthritis
Test: Adjuvant arthritis model in Lewis rats
Type: in vivo, rat

For CNC(=O)[C@H]1O[C@@H](n2cnc3c(NCc4cccc(I)c4)nc(Cl)nc32)[C@H](O)[C@@H]1O [Cl-IB-MECA, 2-chloro-N^6-(3-iodobenzyl)-adenosine-5′-N-methyl-uronamide], the appearance of paws (10 μg/kg a day PO, untreated rat paws extremely swollen and red) was “normal appearing paws” and the “improvement of arthritis score, 10 μg a day compared with 100 μg/kg a day” value (PO, from day 7 after disease induction, FIG. 4) was “significantly more effective”.
